Source: publication PMC12298351, “Novel 3,19-(N-Phenyl-3-(4-fluorophenyl)-pyrazole) Acetal of Andrographolide Promotes Cell Cycle Arrest and Apoptosis in MDA-MB-231 Breast Cancer Cells” (Pharmaceuticals, 2025)

Tests used:
[1] = tested on: SW-620; settings: SW-620, Colon; for CC50: read-out: 50% lethal concentration (LC50)
[2] = tested on: LOX IMVI; settings: for GI50 / Total growth inhibition (TGI): Melanoma; for CC50: read-out: 50% lethal concentration (LC50), Melanoma
[3] = tested on: HS 578T; settings: for GI50 / Total growth inhibition (TGI): Breast; for CC50: read-out: 50% lethal concentration (LC50), Breast
[4] = tested on: M14; assay type: cell-based; settings: M14, Melanoma
[5] = tested on: KM12; settings: KM12, Colon
[6] = tested on: MCF7; settings: MCF7, Breast; for CC50: read-out: 50% lethal concentration (LC50)
[7] = tested on: HOP-62; settings: for Total growth inhibition (TGI) / CC50: HOP-62, Non-Small Cell Lung; for GI50: HOP-62, Non-Small-Cell Lung; for CC50: read-out: 50% lethal concentration (LC50)
[8] = tested on: NCI-H226; settings: for Total growth inhibition (TGI) / CC50: NCI-H226, Non-Small Cell Lung; for GI50: NCI-H226, Non-Small-Cell Lung; for CC50: read-out: 50% lethal concentration (LC50)
[9] = tested on: SR; settings: for GI50 / Total growth inhibition (TGI): Leukemia; for CC50: read-out: 50% lethal concentration (LC50), Leukemia
[10] = tested on: NCI/ADR-RES; settings: for GI50 / Total growth inhibition (TGI): Ovarian; for CC50: read-out: 50% lethal concentration (LC50), Ovarian
[11] = tested on: SF-539; settings: SF-539, CNS; for CC50: read-out: 50% lethal concentration (LC50)
[12] = tested on: EKVX; settings: for Total growth inhibition (TGI): Non-Small Cell Lung; for GI50: Non-Small-Cell Lung; for CC50: read-out: 50% lethal concentration (LC50), Non-Small Cell Lung
[13] = tested on: CAKI-1; settings: CAKI-1, Renal; for CC50: read-out: 50% lethal concentration (LC50)
[14] = tested on: SK-MEL-28; settings: SK-MEL-28, Melanoma; for CC50: read-out: 50% lethal concentration (LC50)
[15] = tested on: MDA-MB-231; settings: for GI50: MDA-MB-231, Breast; for Total growth inhibition (TGI) / CC50: MDA-MB-231/ATCC, Breast; for CC50: read-out: 50% lethal concentration (LC50)
[16] = tested on: U251; settings: U251, CNS
[17] = tested on: RXF 393; settings: RXF 393, Renal; for CC50: read-out: 50% lethal concentration (LC50)
[18] = tested on: SK-MEL-2; settings: SK-MEL-2, Melanoma
[19] = tested on: OVCAR-3; settings: OVCAR-3, Ovarian; for CC50: read-out: 50% lethal concentration (LC50)
[20] = tested on: MDA-MB-468; settings: MDA-MB-468, Breast; for CC50: read-out: 50% lethal concentration (LC50)
[21] = DPPH radical scavenging assay; settings: 25 µM test compound, 0.1 mM DPPH, acetonitrile, 30 min
Method: A stable free radical DPPH (2,2-Diphenyl-1-picrylhydrazyl) assay was employed to test the antioxidant activity of all the synthesized compounds. Concisely, 25 µM of the test compounds were dissolved in acetonitrile and combined with 0.1 mM of DPPH (in acetonitrile) in a 1:2 ratio (80 µL and 160 µL). Then, the mixture was left undisturbed in the dark for 30 min at room temperature. After 30 min, the absorbance of the solutions was instantly measured at 517 nm using a Varioskan Multiplate Reader (Thermo Fisher Scientific, Mumbai, India). Ascorbic acid (in acetonitrile) was used as the positive control, and andrographolide and isoandrogapholide (in acetonitrile) were used as the standards. The following equation was used to determine the DPPH radical scavenging activity:% Radical scavenging activity = (Ac − As)/Ac × 100 where Ac = the absorbance of the blank (DPPH solution), and As = the absorbance of the test samples

[22] = tested on: A498; settings: A498, Renal; for CC50: read-out: 50% lethal concentration (LC50)
[23] = tested on: SN12C; settings: for GI50 / Total growth inhibition (TGI): Renal; for CC50: read-out: 50% lethal concentration (LC50), Renal
[24] = tested on: HT29; settings: HT29, Colon; for CC50: read-out: 50% lethal concentration (LC50)
[25] = tested on: NCI-H460; settings: for GI50: NCI-H460, Non-Small-Cell Lung
[26] = tested on: A549/ATCC; settings: for Total growth inhibition (TGI): Non-Small Cell Lung; for GI50: Non-Small-Cell Lung; for CC50: read-out: 50% lethal concentration (LC50), Non-Small Cell Lung
[27] = tested on: OVCAR-8; settings: OVCAR-8, Ovarian; for CC50: read-out: 50% lethal concentration (LC50)
[28] = tested on: MALME-3M; settings: Melanoma

## C=C1CCC2C3(C)COC(c4cn(-c5ccccc5)nc4-c4ccc(C)cc4)OC3CCC2(C)C1CC=C1C(=O)OCC1O (centres unmarked) [1i]
[1]
  GI50: 5.42 µM
  CC50: > 100 µM
[2]
  GI50: 1.43 µM
  Total growth inhibition (TGI): 2.74 µM
  CC50: 5.25 µM
[3]
  GI50: 1.85 µM
  Total growth inhibition (TGI): 3.41 µM
  CC50: 6.28 µM
[4]
  GI50: 1.76 µM
  Total growth inhibition (TGI): 3.61 µM
[5]
  GI50: 3.01 µM
  Total growth inhibition (TGI): 7.93 µM
[6]
  GI50: 1.57 µM
  Total growth inhibition (TGI): 4.6 µM
  CC50: 5.4 µM
[7]
  Total growth inhibition (TGI): 4.44 µM
  GI50: 2.12 µM
  CC50: 9.27 µM
[8]
  Total growth inhibition (TGI): 2.95 µM
  GI50: 1.47 µM
  CC50: 5.92 µM
[9]
  GI50: 2.74 µM
  Total growth inhibition (TGI): > 100 µM
  CC50: > 100 µM
[10]
  GI50: 1.65 µM
  Total growth inhibition (TGI): 3.71 µM
  CC50: 8.34 µM
[11]
  GI50: 1.79 µM
  Total growth inhibition (TGI): 3.19 µM
  CC50: 5.7 µM
[12]
  Total growth inhibition (TGI): 4.96 µM
  GI50: 2.13 µM
  CC50: > 100 µM
[13]
  GI50: 1.71 µM
  Total growth inhibition (TGI): 3.37 µM
  CC50: 6.64 µM
[14]
  GI50: 1.74 µM
  Total growth inhibition (TGI): 3.33 µM
  CC50: 6.39 µM
[15]
  GI50: 1.7 µM
  Total growth inhibition (TGI): 3.28 µM
  CC50: 6.33 µM
[16]
  GI50: 2.61 µM
  Total growth inhibition (TGI): 3.12 µM
[17]
  GI50: 1.49 µM
  Total growth inhibition (TGI): 2.97 µM
  CC50: 5.92 µM
[18]
  GI50: 1.79 µM
  Total growth inhibition (TGI): 3.28 µM
[19]
  GI50: 1.95 µM
  Total growth inhibition (TGI): 3.82 µM
  CC50: 7.49 µM
[20]
  GI50: 1.85 µM
  Total growth inhibition (TGI): 3.45 µM
  CC50: 6.43 µM
[21]
  % DPPH radical scavenging activity: 56.31%
[22]
  GI50: 4.03 µM
  Total growth inhibition (TGI): 15.8 µM
  CC50: 48.8 µM
[23]
  GI50: 1.66 µM
  Total growth inhibition (TGI): 3.44 µM
  CC50: 7.15 µM
[24]
  GI50: 1.9 µM
  Total growth inhibition (TGI): 4.58 µM
  CC50: > 100 µM
[25]; NCI-H460, Non-Small Cell Lung
  Total growth inhibition (TGI): 3.56 µM
[25]
  GI50: 1.83 µM
[25]; read-out: 50% lethal concentration (LC50), NCI-H460, Non-Small Cell Lung
  CC50: 6.91 µM
[26]
  Total growth inhibition (TGI): 13.5 µM
  GI50: 3.09 µM
  CC50: > 100 µM
[27]
  GI50: 1.67 µM
  Total growth inhibition (TGI): 3.51 µM
  CC50: 7.37 µM
[28]
  GI50: 2.46 µM
  Total growth inhibition (TGI): 4.28 µM

## C=C1CCC2C3(C)COC(c4cn(-c5ccccc5)nc4-c4cccc(F)c4)OC3CCC2(C)C1CC=C1C(=O)OCC1O (centres unmarked) [1c]
[1]
  GI50: 5.71 µM
  Total growth inhibition (TGI): > 100 µM
  CC50: > 100 µM
[2]
  GI50: 1.44 µM
  Total growth inhibition (TGI): 2.75 µM
  CC50: 5.25 µM
[3]
  GI50: 1.66 µM
  Total growth inhibition (TGI): 3.18 µM
  CC50: 6.12 µM
[4]
  GI50: 1.75 µM
  Total growth inhibition (TGI): 3.59 µM
[5]
  GI50: 2.26 µM
  Total growth inhibition (TGI): 4.47 µM
[6]
  GI50: 1.63 µM
  Total growth inhibition (TGI): 5.49 µM
  CC50: 50.1 µM
[7]
  Total growth inhibition (TGI): 3.86 µM
  GI50: 1.74 µM
  CC50: 8.55 µM
[8]
  Total growth inhibition (TGI): 3.19 µM
  GI50: 1.67 µM
  CC50: 6.08 µM
[9]
  GI50: 2.2 µM
  Total growth inhibition (TGI): > 100 µM
  CC50: > 100 µM
[10]
  GI50: 1.77 µM
  Total growth inhibition (TGI): 3.99 µM
  CC50: 8.99 µM
[11]
  GI50: 1.77 µM
  Total growth inhibition (TGI): 3.17 µM
  CC50: 5.68 µM
[12]
  Total growth inhibition (TGI): 5.17 µM
  GI50: 2.21 µM
  CC50: 56 µM
[13]
  GI50: 1.56 µM
  Total growth inhibition (TGI): 3.09 µM
  CC50: 6.13 µM
[14]
  GI50: 1.77 µM
  Total growth inhibition (TGI): 3.35 µM
  CC50: 6.36 µM
[15]
  GI50: 1.72 µM
  Total growth inhibition (TGI): 3.29 µM
  CC50: 6.28 µM
[16]
  GI50: 1.81 µM
  Total growth inhibition (TGI): 5.61 µM
[17]
  GI50: 1.64 µM
  Total growth inhibition (TGI): 3.12 µM
  CC50: 5.94 µM
[18]
  GI50: 1.79 µM
  Total growth inhibition (TGI): 3.29 µM
[19]
  GI50: 1.95 µM
  Total growth inhibition (TGI): 3.68 µM
  CC50: 6.94 µM
[20]
  GI50: 1.63 µM
  Total growth inhibition (TGI): 3.13 µM
  CC50: 6.01 µM
[21]
  % DPPH radical scavenging activity: 58.33%
[22]
  GI50: 4.13 µM
  Total growth inhibition (TGI): 18.4 µM
  CC50: 53.3 µM
[23]
  GI50: 1.59 µM
  Total growth inhibition (TGI): 3.42 µM
  CC50: 7.34 µM
[24]
  GI50: 1.7 µM
  Total growth inhibition (TGI): 4.51 µM
  CC50: > 100 µM
[25]; NCI-H460, Non-Small Cell Lung
  Total growth inhibition (TGI): 3.59 µM
[25]
  GI50: 1.81 µM
[26]
  Total growth inhibition (TGI): 25.3 µM
  GI50: 3.88 µM
  CC50: > 100 µM
[27]
  GI50: 1.77 µM
  Total growth inhibition (TGI): 3.88 µM
  CC50: 8.5 µM
[28]
  GI50: 1.87 µM
  Total growth inhibition (TGI): 3.5 µM
